Measured values from PubChem BioAssay AID1963975 (Molecular Pharmacology Branch, DTP, NCI, 2024).
pIC50: −log10 of the molar value.

System: 624824-186-R-J2-PDC multicell spheroids, viability
Assay: Anticancer human tumor 624824-186-R-J2-PDC patient-derived colon adenocarcinoma cell line growth inhibition [PI3K]
Conditions: for viability, T/C: stronger effect = lower value
In short: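 Combination activity was assessed by viability in multicellular tumor spheroids carrying HUVEC and MSC components. Agents were tested with PI3K inhibitors from a Cmax-based top dose (or 10 microM) downward in half-log increments.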

[1] = curve of first compound, second compound 0.00316 µM
[2] = curve of first compound, second compound 0.01 µM
[3] = curve of first compound, second compound 0.0316 µM
[4] = curve of first compound, second compound 0.1 µM
[5] = curve of first compound, second compound 0.316 µM
[6] = curve of first compound, second compound 1 µM
[7] = second compound 0.00316 µM, first compound 0.0316 µM
[8] = second compound 0.00316 µM, first compound 0.1 µM
[9] = second compound 0.00316 µM, first compound 0.316 µM
[10] = second compound 0.00316 µM, first compound 1 µM
[11] = second compound 0.00316 µM, first compound 3.16 µM
[12] = second compound 0.00316 µM, first compound 10 µM
[13] = second compound 0.01 µM, first compound 0.0316 µM
[14] = second compound 0.01 µM, first compound 0.1 µM
[15] = second compound 0.01 µM, first compound 0.316 µM
[16] = second compound 0.01 µM, first compound 1 µM
[17] = second compound 0.01 µM, first compound 3.16 µM
[18] = second compound 0.01 µM, first compound 10 µM
[19] = second compound 0.0316 µM, first compound 0.0316 µM
[20] = second compound 0.0316 µM, first compound 0.1 µM
[21] = second compound 0.0316 µM, first compound 0.316 µM
[22] = second compound 0.0316 µM, first compound 1 µM
[23] = second compound 0.0316 µM, first compound 3.16 µM
[24] = second compound 0.0316 µM, first compound 10 µM
[25] = second compound 0.1 µM, first compound 0.0316 µM
[26] = second compound 0.1 µM, first compound 0.1 µM
[27] = second compound 0.1 µM, first compound 0.316 µM
[28] = second compound 0.1 µM, first compound 1 µM
[29] = second compound 0.1 µM, first compound 3.16 µM
[30] = second compound 0.1 µM, first compound 10 µM
[31] = second compound 0.316 µM, first compound 0.0316 µM
[32] = second compound 0.316 µM, first compound 0.1 µM
[33] = second compound 0.316 µM, first compound 0.316 µM
[34] = second compound 0.316 µM, first compound 1 µM
[35] = second compound 0.316 µM, first compound 3.16 µM
[36] = second compound 0.316 µM, first compound 10 µM
[37] = second compound 1 µM, first compound 0.0316 µM
[38] = second compound 1 µM, first compound 0.1 µM
[39] = second compound 1 µM, first compound 0.316 µM
[40] = second compound 1 µM, first compound 1 µM
[41] = second compound 1 µM, first compound 3.16 µM
[42] = second compound 1 µM, first compound 10 µM
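Also: spheroids exposed to agents for 7 days before viability read.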
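For viability, T/C in this document: 100% = DMSO vehicle treated spheroids.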

`Cn1nccc1Nc1nccc(-c2ccn(C(CO)c3ccc(Cl)c(F)c3)c(=O)c2)n1` (stereo unspecified) + CC(Nc1ccc2c(c1)OCCn1cc(N3C(=O)OCC3C(F)F)nc1-2)C(N)=O was tested, and the pIC50 [1] was < 5.00, the pIC50 [2] was < 5.00 and the pIC50 [3] was < 5.00. For the same compound, the pIC50 [4] was < 5.00, the pIC50 [5] was < 5.00 and the pIC50 [6] was 5.88. For the same compound, the viability, T/C [7] was 79.4%, the viability, T/C [8] was 78.9% and the viability, T/C [9] was 80.1%. The viability, T/C [10] was 84.7%, the viability, T/C [11] was 104% and the viability, T/C [12] was 99.5%. The viability, T/C [13] was 80.5%, the viability, T/C [14] was 73.6% and the viability, T/C [15] was 77.6%. It also gave a viability, T/C [16] of 90.5%, a viability, T/C [17] of 102% and a viability, T/C [18] of 116%. The viability, T/C [19] was 79%, the viability, T/C [20] was 71.8% and the viability, T/C [21] was 72%. The viability, T/C [22] was 91.6%, the viability, T/C [23] was 86.6% and the viability, T/C [24] was 93.2%. The viability, T/C [25] was 87.5%, the viability, T/C [26] was 61.4% and the viability, T/C [27] was 68.8%. It also gave a viability, T/C [28] of 95.6%, a viability, T/C [29] of 84.9% and a viability, T/C [30] of 59%. The viability, T/C [31] was 63%, the viability, T/C [32] was 63.5% and the viability, T/C [33] was 68.6%. The viability, T/C [34] was 73.7%, the viability, T/C [35] was 63.9% and the viability, T/C [36] was 40.4%. The viability, T/C [37] was 73.1%, the viability, T/C [38] was 86.4% and the viability, T/C [39] was 61%. It also gave a viability, T/C [40] of 52.9%, a viability, T/C [41] of 42.5% and a viability, T/C [42] of 29%.
`CCN1CCN(Cc2ccc(Nc3ncc(F)c(-c4cc(F)c5nc(C)n(C(C)C)c5c4)n3)nc2)CC1` was tested, and the viability, T/C (compound 0.0316 µM) was 86.1% [middle of 4 runs], the viability, T/C (compound 0.1 µM) was 93.7% [middle of 4 runs] and the viability, T/C (compound 0.316 µM) was 93.5% [middle of 4 runs]. The viability, T/C (compound 1 µM) was 102% [middle of 4 runs] and the pIC50 (curve of compound) was < 6.00.
With `CC(C)n1nc(-c2ccc3oc(N)nc3c2)c2c(N)ncnc21` + CC(Nc1ccc2c(c1)OCCn1cc(N3C(=O)OCC3C(F)F)nc1-2)C(N)=O the pIC50 [1] was < 7.00, the pIC50 [2] was < 7.00 and the pIC50 [3] was < 7.00. The pIC50 [4] was < 7.00, the pIC50 [5] was < 7.00 and the pIC50 [6] was < 7.00. The viability, T/C (second compound 0.00316 µM, first compound 0.000316 µM) was 74%, the viability, T/C (second compound 0.00316 µM, first compound 0.001 µM) was 86.9% and the viability, T/C (second compound 0.00316 µM, first compound 0.00316 µM) was 95.5%. It also gave a viability, T/C (second compound 0.00316 µM, first compound 0.01 µM) of 92.1%, a viability, T/C [7] of 89.2% and a viability, T/C [8] of 87.5%. It also gave a viability, T/C (second compound 0.01 µM, first compound 0.000316 µM) of 106%, a viability, T/C (second compound 0.01 µM, first compound 0.001 µM) of 110% and a viability, T/C (second compound 0.01 µM, first compound 0.00316 µM) of 107%. For the same compound, the viability, T/C (second compound 0.01 µM, first compound 0.01 µM) was 86.8%, the viability, T/C [13] was 105% and the viability, T/C [14] was 87.2%. For the same compound, the viability, T/C (second compound 0.0316 µM, first compound 0.000316 µM) was 83.5%, the viability, T/C (second compound 0.0316 µM, first compound 0.001 µM) was 81.4% and the viability, T/C (second compound 0.0316 µM, first compound 0.00316 µM) was 67.6%. It also gave a viability, T/C (second compound 0.0316 µM, first compound 0.01 µM) of 78.1%, a viability, T/C [19] of 91.9% and a viability, T/C [20] of 90.4%. It also gave a viability, T/C (second compound 0.1 µM, first compound 0.000316 µM) of 88.3%, a viability, T/C (second compound 0.1 µM, first compound 0.001 µM) of 96.8% and a viability, T/C (second compound 0.1 µM, first compound 0.00316 µM) of 96.8%. It also gave a viability, T/C (second compound 0.1 µM, first compound 0.01 µM) of 68.4%, a viability, T/C [25] of 84.5% and a viability, T/C [26] of 92.5%. The viability, T/C (second compound 0.316 µM, first compound 0.000316 µM) was 74.9%, the viability, T/C (second compound 0.316 µM, first compound 0.001 µM) was 96.1% and the viability, T/C (second compound 0.316 µM, first compound 0.00316 µM) was 78.7%. The viability, T/C (second compound 0.316 µM, first compound 0.01 µM) was 72.3%, the viability, T/C [31] was 82.2% and the viability, T/C [32] was 75.4%. The viability, T/C (second compound 1 µM, first compound 0.000316 µM) was 97%, the viability, T/C (second compound 1 µM, first compound 0.001 µM) was 78.9% and the viability, T/C (second compound 1 µM, first compound 0.00316 µM) was 85%. For the same compound, the viability, T/C (second compound 1 µM, first compound 0.01 µM) was 88.5%, the viability, T/C [37] was 84.1% and the viability, T/C [38] was 72%.
`Cn1ncc(Cl)c1-c1cc(C(=O)NC(CN)Cc2cccc(F)c2)sc1Cl` (stereo unspecified) + CC(Nc1ccc2c(c1)OCCn1cc(N3C(=O)OCC3C(F)F)nc1-2)C(N)=O was tested, and the pIC50 [1] was < 5.00, the pIC50 [2] was < 5.00 and the pIC50 [3] was < 5.00. The pIC50 [4] was < 5.00, the pIC50 [5] was < 5.00 and the pIC50 [6] was < 5.00. It also gave a viability, T/C [7] of 106%, a viability, T/C [8] of 97.5% and a viability, T/C [9] of 75.8%. For the same compound, the viability, T/C [10] was 87.1%, the viability, T/C [11] was 67.7% and the viability, T/C [12] was 78.8%. The viability, T/C [13] was 107%, the viability, T/C [14] was 78.8% and the viability, T/C [15] was 70.9%. The viability, T/C [16] was 78.8%, the viability, T/C [17] was 79.6% and the viability, T/C [18] was 50.4%. It also gave a viability, T/C [19] of 101%, a viability, T/C [20] of 71.9% and a viability, T/C [21] of 75.7%. It also gave a viability, T/C [22] of 85.9%, a viability, T/C [23] of 78.7% and a viability, T/C [24] of 58.8%. The viability, T/C [25] was 75%, the viability, T/C [26] was 100% and the viability, T/C [27] was 74.5%. For the same compound, the viability, T/C [28] was 81.8%, the viability, T/C [29] was 76.9% and the viability, T/C [30] was 53.1%. The viability, T/C [31] was 71.3%, the viability, T/C [32] was 81.5% and the viability, T/C [33] was 92.6%. For the same compound, the viability, T/C [34] was 85.1%, the viability, T/C [35] was 75.4% and the viability, T/C [36] was 57.3%. For the same compound, the viability, T/C [37] was 86.7%, the viability, T/C [38] was 77.8% and the viability, T/C [39] was 95.4%. It also gave a viability, T/C [40] of 76.7%, a viability, T/C [41] of 75.7% and a viability, T/C [42] of 59.3%.
